20 compounds from patent US20250136576A1, “Heterocyclic Compounds and Uses Thereof” (ACEA Therapeutics, Inc., priority 2021, published 2025) can be followed below.

The assay concerns KM12-luc cells. The experiment in a line: Cell proliferation and growth inhibition assay (CCK-8) in KM12-luc. The assay is classed as cell-based. Particulars: KM12-Luc, 72 h, KM12-luc cells, treated with test compounds for 72 hrs, CCK-8 viability; read-out: NTRK IC50 in KM12-luc. In a few lines: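 Cells were grown at 37 °C, 5% CO2 with 10% FBS: MV-4-11 in IMDM, H1975 in RPMI 1640, KM12-luc in DMEM. Viability was read by CCK-8 (1-4 hrs reagent incubation, absorbance at OD450). IC50 came from a non-linear sigmoidal dose-response fit.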

One may read the IC50 as the point on the concentration scale where inhibition reaches its midpoint. As for `CC(=O)Nc1cc(Nc2ncc(C(F)(F)F)c(-c3c[nH]c4c(F)cccc34)n2)c(F)cc1N(C)CCN(C)C` [Compound 340, N-(2-((2-(dimethylamino)ethyl)(methyl)amino)-4-fluoro-5-((4-(7-fluoro-1H-indol-3-yl)-5-(trifluoromethyl)pyrimidin-2-yl)amino)phenyl)acetamide], the IC50 was 57.4 nM.
Under `CC(=O)Nc1cc(Nc2ncc(C(F)(F)F)c(-c3c[nH]c4c(F)cccc34)n2)ccc1N(CCN(C)C)C(C)=O` [Compound 341, N-(2-acetamido-4-((4-(7-fluoro-1H-indol-3-yl)-5-(trifluoromethyl)pyrimidin-2-yl)amino)phenyl)-N-(2-(dimethylamino)ethyl)acetamide] stands 248 nM.
For `Cc1nc2cc(Nc3ncc(C(F)(F)F)c(-c4c[nH]c5c(F)cccc45)n3)ccc2n1CCN(C)C` [Compound 342, 1-(2-(dimethylamino)ethyl)-N-(4-(7-fluoro-1H-indol-3-yl)-5-(trifluoromethyl)pyrimidin-2-yl)-2-methyl-1H-benzo[d]imidazol-5-amine] the value was 24.6 nM; for `CC(=O)Nc1cc(Nc2ncc(C(F)(F)F)c(-c3cn(C)c4c(F)cccc34)n2)ccc1N(C)CCN(C)C` [Compound 346, N-(2-((2-(dimethylamino)ethyl)(methyl)amino)-5-((4-(7-fluoro-1-methyl-1H-indol-3-yl)-5-(trifluoromethyl)pyrimidin-2-yl)amino)phenyl)acetamide], 105 nM; for `CN(C)CCN(C)c1ccc(Nc2ncc(C(F)(F)F)c(-c3cn(C)c4c(F)cccc34)n2)cc1N` [Compound 347, N^1-(2-(dimethylamino)ethyl)-N^4-(4-(7-fluoro-1-methyl-1H-indol-3-yl)-5-(trifluoromethyl)pyrimidin-2-yl)-N^1-methylbenzene-1,2,4-triamine], 114 nM.
For `CCN(CCN(C)C)c1ccc(Nc2ncc(C(F)(F)F)c(-c3cn(C)c4c(F)cccc34)n2)cc1NC(C)=O` [Compound 348, N-(2-((2-(dimethylamino)ethyl)(ethyl)amino)-5-((4-(7-fluoro-1-methyl-1H-indol-3-yl)-5-(trifluoromethyl)pyrimidin-2-yl)amino)phenyl)acetamide] the value was 87.8 nM.
Turning to `CCN(CCN(C)C)c1ccc(Nc2ncc(C(F)(F)F)c(-c3cn(C)c4c(F)cccc34)n2)cc1N` [Compound 349, N^1-(2-(dimethylamino)ethyl)-N^1-ethyl-N^4-(4-(7-fluoro-1-methyl-1H-indol-3-yl)-5-(trifluoromethyl)pyrimidin-2-yl)benzene-1,2,4-triamine], the IC50 amounted to 245 nM.
In the case of `CC(=O)Nc1cc(Nc2ncc(C(F)(F)F)c(-c3cn(C)c4c(F)cccc34)n2)ccc1N(CCN(C)C)C(C)=O` [Compound 350, N-(2-acetamido-4-((4-(7-fluoro-1-methyl-1H-indol-3-yl)-5-(trifluoromethyl)pyrimidin-2-yl)amino)phenyl)-N-(2-(dimethylamino)ethyl)acetamide], the IC50 was determined as 126 nM.
For `Cc1nc2cc(Nc3ncc(C(F)(F)F)c(-c4cn(C)c5c(F)cccc45)n3)ccc2n1CCN(C)C` [Compound 351, 1-(2-(dimethylamino)ethyl)-N-(4-(7-fluoro-1-methyl-1H-indol-3-yl)-5-(trifluoromethyl)pyrimidin-2-yl)-2-methyl-1H-benzo[d]imidazol-5-amine] the value was 172 nM; for `CC(=O)Nc1cc(Nc2ncc(C(F)(F)F)c(-c3cn(C)c4c(F)cccc34)n2)ccc1OCCN(C)C` [Compound 352, N-(2-(2-(dimethylamino)ethoxy)-5-((4-(7-fluoro-1-methy-1H-indol-3-yl)-5-(trifluoromethyl)pyrimidin-2-yl)amino)phenyl)acetamide], 42.1 nM; for `CC(=O)Nc1cc(Nc2ncc(C(F)(F)F)c(-c3cn(C)c4cc(F)c(F)cc34)n2)ccc1N(C)CCN(C)C` [Compound 355, N-(5-((4-(5,6-difluoro-1-methyl-1H-indol-3-yl)-5-(trifluoromethyl)pyrimidin-2-yl)amino)-2-((2-(dimethylamino)ethyl)(methyl)amino)phenyl)acetamide], 70.4 nM.
In the case of `CC(=O)Nc1cc(Nc2ncc(C(F)(F)F)c(-c3cn(C)c4ccc(C)cc34)n2)ccc1N(C)CCN(C)C` [Compound 356, N-(5-((4-(1,5-dimethyl-1H-indol-3-yl)-5-(trifluoromethyl)pyrimidin-2-yl)amino)-2-((2-(dimethylamino)ethyl)(methyl)amino)phenyl)acetamide], the half-inhibitory concentration (IC50) came out at 327 nM.
For the compound `COc1ccc2c(c1)c(-c1nc(Nc3ccc(N(C)CCN(C)C)c(NC(C)=O)c3)ncc1C(F)(F)F)cn2C` [Compound 357, N-(2-((2-(dimethylamino)ethyl)(methyl)amino)-5-((4-(5-methoxy-1-methyl-1H-indol-3-yl) 5-(trifluoromethyl)pyrimidin-2-yl)amino)phenyl)acetamide], the half-inhibitory concentration (IC50) stood at 1080 nM.
Under `CC(=O)Nc1cc(Nc2ncc(C(F)(F)F)c(-c3c[nH]c4c(C)cccc34)n2)ccc1N(CCN(C)C)C(C)=O` [Compound 363, N-(2-acetamido-4-((4-(7-methyl-1H-indol-3-yl)-5-(trifluoromethyl)pyrimidin-2-yl)amino)phenyl)-N-(2-(dimethylamino)ethyl)acetamide] stands 93.4 nM; under `Cc1cccc2c(-c3nc(Nc4ccc5c(c4)nc(C)n5CCN(C)C)ncc3C(F)(F)F)c[nH]c12` [Compound 364, 1-(2-(dimethylamino)ethyl)-2-methyl-N-(4-(7-methyl-1H-indol-3-yl)-5-(trifluoromethyl)pyrimidin-2-yl)-1H-benzo[d]imidazol-5-amine], 20.1 nM.
For `Cc1cccc2c(-c3nc(Nc4ccc(N(C)CCN(C)C)c(N)c4)ncc3C(F)(F)F)cn(C)c12` [Compound 369, N^4-(4-(1,7-dimethyl-1H-indol-3-yl)-5-(trifluoromethyl)pyrimidin-2-yl)-N^1-(2-(dimethylamino)ethyl)-N^1-methylbenzene-1,2,4-triamine], the concentration for half-maximal inhibition (IC50) turned out to be 27.6 nM.
As for `CC(=O)Nc1cc(Nc2ncc(C(F)(F)F)c(-c3cn(C)c4c(C)cccc34)n2)ccc1N(CCN(C)C)C(C)=O` [Compound 370, N-(2-acetamido-4-((4-(1,7-dimethyl-1H-indol-3-yl)-5-(trifluoromethyl)pyrimidin-2-yl)amino)phenyl)-N-(2-(dimethylamino)ethyl)acetamide], the 50% inhibitory concentration (IC50) came out at 77.1 nM.
For `Cc1cccc2c(-c3nc(Nc4ccc5c(c4)nc(C)n5CCN(C)C)ncc3C(F)(F)F)cn(C)c12` [Compound 371, N-(4-(1,7-dimethyl-1H-indol-3-yl)-5-(trifluoromethyl)pyrimidin-2-yl)-1-(2-(dimethylamino)ethyl)-2-methyl-1H-benzo[d]imidazol-5-amine] the value was 110 nM.
Under `CC(=O)Nc1cc(Nc2ncc(C(F)(F)F)c(-c3cn(C)c4c(C)cccc34)n2)ccc1OCCN(C)C` [Compound 372, N-(5-((4-(1,7-dimethyl-1H-indol-3-yl)-5-(trifluoromethyl)pyrimidin-2-yl)amino)-2-(2-(dimethylamino)ethoxy)phenyl)acetamide] stands 30.2 nM.
As for `COc1cccc2c(-c3nc(Nc4ccc(N(CCN(C)C)C(C)=O)c(NC(C)=O)c4)ncc3C(F)(F)F)c[nH]c12` [Compound 379, N-(2-acetamido-4-((4-(7-methoxy-1H-indol-3-yl)-5-(trifluoromethyl)pyrimidin-2-yl)amino)phenyl)-N-(2-(dimethylamino)ethyl)acetamide], the half-maximal inhibitory concentration (IC50) worked out at 149 nM.
